pIC50: −log10 of the molar value.
The compounds below were run against Mitogen-activated protein kinase kinase kinase kinase 1 (Homo sapiens, UniProt Q92918) (assay: Biochemical Enzyme Assay: HPK1 biochemical enzyme assay: HPK1 enzyme inhibition was measured using a microfluidic mobility shift assay. […] Test compounds were titrated in ten point curves (top final assay concentration 3 μM), and preincubated with enzyme/substrate mix for 30 min prior to initiation of the reaction by addition of ATP (1 mM final concentration) and substrate (1 μM final concentration; Carna Biosciences) diluted in assay buffer supplemented by MgCl2 (final assay concentration of 5 mM). Following 60 min incubation at RT, the reaction was terminated by addition of 60 µl/well termination buffer (Carna Biosciences) and signal determination using aCaliper EZ Reader (Perkin Elmer, UK).).
Mitogen-activated protein kinase kinase kinase kinase 1, sequence (Q92918 whole entry): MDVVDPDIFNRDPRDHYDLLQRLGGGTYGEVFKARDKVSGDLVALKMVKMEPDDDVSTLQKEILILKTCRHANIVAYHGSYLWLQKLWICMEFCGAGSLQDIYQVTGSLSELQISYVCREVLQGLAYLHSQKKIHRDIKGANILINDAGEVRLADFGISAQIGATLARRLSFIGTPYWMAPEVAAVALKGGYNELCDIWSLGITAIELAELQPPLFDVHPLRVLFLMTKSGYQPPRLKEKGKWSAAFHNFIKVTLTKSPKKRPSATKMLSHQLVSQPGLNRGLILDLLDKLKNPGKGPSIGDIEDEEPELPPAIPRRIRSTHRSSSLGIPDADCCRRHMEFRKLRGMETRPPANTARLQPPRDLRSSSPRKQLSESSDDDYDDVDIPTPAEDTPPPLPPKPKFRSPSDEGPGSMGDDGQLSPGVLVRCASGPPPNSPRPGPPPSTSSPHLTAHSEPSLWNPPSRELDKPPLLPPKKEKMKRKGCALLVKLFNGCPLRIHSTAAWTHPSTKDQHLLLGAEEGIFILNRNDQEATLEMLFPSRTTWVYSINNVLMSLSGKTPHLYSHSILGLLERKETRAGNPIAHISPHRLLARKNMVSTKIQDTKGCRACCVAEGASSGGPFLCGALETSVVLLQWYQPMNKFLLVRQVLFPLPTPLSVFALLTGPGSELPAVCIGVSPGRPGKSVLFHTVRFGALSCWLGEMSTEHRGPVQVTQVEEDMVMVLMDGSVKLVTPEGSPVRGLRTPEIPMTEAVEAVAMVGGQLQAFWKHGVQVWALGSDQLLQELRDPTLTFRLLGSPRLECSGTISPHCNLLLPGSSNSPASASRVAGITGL

pIC50 | SMILES
> 7.00 | Cn1ccc2c(-c3ccc(Nc4ccc(N5CCO[C@H](C(C)(C)O)C5)cn4)c4c3CNC4=O)ncnc21
> 7.00 | CC(C)(NC1CC1)C1CN(c2ccc(Nc3ccc(-c4cnc5cc(F)ccn45)c4c3C(=O)NC4)nc2)CCO1 (stereo unspecified)
> 7.00 | Cc1ccn2c(-c3ccc(Nc4ccc(N5CCC[C@](O)(CN(C)C)C5)cn4)c4c3CNC4=O)cnc2c1F
> 7.00 | CN(C)CCc1nc(Nc2ccc(-c3cnc4cc(F)ccn34)c3c2C(=O)NC3)ccc1[C@@H]1CCOC1
> 7.00 | O=C1NCc2c(-c3cnc4cc(F)ccn34)ccc(Nc3ccc([C@]4(O)CCOC4)cn3)c21
> 7.00 | O=C1NCc2c(-c3cnc4ccccn34)ncc(Nc3ccc(N4CC[C@@H](F)[C@H](O)C4)cn3)c21
> 7.00 | COc1cc(Nc2ccc(-c3ccnc4c3ccn4C)c3c2C(=O)NC3)ncc1N1CCC(O)CC1
> 7.00 | Cn1ccc2c(-c3ccc(Nc4ccc(N5CCO[C@@H](C(C)(C)O)C5)cn4)c4c3CNC4=O)ncnc21
> 7.00 | CN(C)C[C@H]1CN(c2ccc(Nc3cnc(-c4ccnc5c4ccn5C)c4c3C(=O)NC4)nc2)CCO1
> 7.00 | CN1CC[C@H](c2ccc(Nc3cnc(-c4ccnc5c4ccn5C)c4c3C(=O)NC4)nc2)CC1=O
> 7.00 | CN(C)C[C@@H]1CN(c2ccc(Nc3cnc(-c4ccnc5c4ccn5C)c4c3C(=O)NC4)nc2)CCO1
> 7.00 | CCN(C)Cc1nc(Nc2ccc(-c3cnc4cc(F)ccn34)c3c2C(=O)NC3)ccc1[C@H]1CCOC1
> 7.00 | COC1(CO)CCN(c2ccc(Nc3ccc(-c4cnc5cc(F)ccn45)c4c3C(=O)NC4)nc2)CC1
> 7.00 | O=C1NCc2c(-c3cnc4ccccn34)ncc(Nc3ccc(C4(O)CCOCC4)cn3)c21
> 7.00 | Cn1ccc2c(-c3ncc(Nc4ccc(N5CCC(C)(O)CC5)cn4)c4c3CNC4=O)ccnc21
> 7.00 | CN1CC[C@@H](c2ccc(Nc3cnc(-c4ccnc5c4ccn5C)c4c3C(=O)NC4)nc2)CC1=O
> 7.00 | O=C1NCc2c(-c3cnc4cc(F)ccn34)ccc(Nc3ccc([C@@]4(O)CCOC4)cn3)c21
> 7.00 | Cc1cc(Nc2ccc(N3CCC(O)CC3)cn2)c2c(c1-c1cccc3c1ccn3C)CNC2=O
> 7.00 | Cc1ccn2c(-c3ccc(Nc4ccc(N5CCC[C@@](O)(CN(C)C)C5)cn4)c4c3CNC4=O)cnc2c1F
> 7.00 | CN(C)C[C@H]1CN(c2ccc(Nc3ccc(-c4cnc5cc(Cl)ccn45)c4c3C(=O)NC4)nc2)CCO1
> 7.00 | C[C@@H]1CCn2ncc(-c3ccc(Nc4ccc(N5CCN(C)CC5)cn4)c4c3CNC4=O)c2C1
> 7.00 | Cn1ccc2c(-c3ncc(Nc4ccc(N5CCOCC5)cn4)c4c3CNC4=O)ccnc21
> 7.00 | CN(C)C1(c2ccc(Nc3ccc(-c4cnc5cc(F)ccn45)c4c3C(=O)NC4)nc2)CCOCC1
> 7.00 | COCC1(O)CCN(c2ccc(Nc3ccc(-c4cnc5cc(F)ccn45)c4c3C(=O)NC4)nc2)CC1
> 7.00 | CN(C)CCc1nc(Nc2ccc(-c3cnc4cc(F)ccn34)c3c2C(=O)NC3)ccc1[C@H]1CCOC1
> 7.00 | O=C1NCc2c(-c3cnc4cc(C(F)F)ccn34)ccc(Nc3ccc([C@]4(O)CCOC4)cn3)c21

— ChEMBL document CHEMBL5728495, “Substituted isoindolin-1-ones and 2,3-dihydro-1h-pyrrolo[3,4-c]pyridin-1-ones as HPK1 antagonists” (2021)
